These results are taken from US12521393B2, “Cytotoxicity targeting chimeras for CCR2-expressing cells” (GLAXOSMITHKLINE INTELLECTUAL PROPERTY DEVELOPMENT LIMITED, priority 2021, dated 2026).

Assay [1] relates to endogenous target monocytes in human PBMC. Briefly: PBMC ex vivo monocyte depletion flow cytometry assay (Example 200). Format: cell-based. The note with it: with anti-cotinine antibody (SEQ ID NO: 11/12), 18-24 hours, EC50 in molar, read-out: Ex Vivo Depletion Assay pEC50 (converted). The procedure, abridged:
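Monocyte depletion is reported as pEC50, averaged or given individually across runs, and read by flow cytometry staining CD45, CD14 and CD4 with a viability dye. Compounds, diluted four-fold over 11 points from 1 mM DMSO stocks, were combined with 30 μg/mL Fc-enhanced anti-cotinine antibody and human PBMC, then incubated 18-24 h at 37° C.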
Background: In flow cytometry, cells or beads pass a laser one at a time.

For assay [2], the target named is anti-cotinine antibody (SEQ ID NO: 11/12, rabbit variable region with human IgG1 Fc DE mutation). Put plainly: SPR binding of anti-cotinine antibody to ARM compounds, Biacore T200, 37° C. (Example 202). The note with it: SPR Biacore T200, 37° C., pH 7.4, antibody SEQ ID NO: 11/12 captured on protein A; Kd in molar. The method, then:
Anti-cotinine antibodies having a heavy chain sequence of SEQ ID NO: 11 and a light chain sequence of SEQ ID NO: 12 (rabbit variable region with human IgG1 Fc domain containing a DE mutation (S239D/1332E)) were captured on one or more flow cells of a protein A sensor chip (Cytiva) using a Biacore T200 while reserving flow cell 1 as a reference. Following capture, a 3000 second wait step was included to reduce drift during compound analysis. ARM compounds of Formula (I) were then injected at 100 μL/min with 200 and 2000 second association and dissociation times. The entire experiment was run at 37° C. with running buffer containing 10 mM HEPES pH 7.4, 150 mM NaCl, 0.005% P20 and 1% DMSO. ARM compounds of Formula (I) were titrated with a top concentration of 200 nM using a 3-fold 5-point dilution series and a corresponding 5-injection buffer cycle was run for blank subtraction. Data were double referenced by subtracting the response of the reference flow cell from that of the antibody-containing flow cell and subsequently subtracting the referenced blank sensorgrams. Following compound analysis, the surface was regenerated using a 30 second injection of pH 1.5 glycine at a flow rate of 30 μL/min after which antibody was re-captured. The experiment was run using Biacore T200 control software and evaluated using Biacore T200 Evaluation software. Curves were fit with a 1:1 kinetic binding model to obtain kon (1/Ms), koff(1/s), Kd (M) determined as koff/kon, and residence time determined as 1/koff (s).
Anti-cotinine antibody was tested for binding to ARMs compounds of Formula (I) of the invention in the above assay in or more experimental runs and the results are shown in Table 5 below. Affinity is reported as a pKd value. The pKd value is the negative log of the Kd value, wherein the Kd value is the dissociation constant measured in molar (M) as noted above. For compounds tested in more than one experimental run, the pKd value is reported as an average
In general terms: Surface plasmon resonance follows binding to a sensor surface in real time, without labels.

As to `CC(C)N(C)[C@@H]1CC[C@H](N2CC[C@H](Nc3ncnc4ccc(C(F)(F)F)cc34)C2=O)[C@H](NC(=O)CCOCCOCCNC(=O)COCCNC(=O)CCNC(=O)[C@H]2CC(=O)N(C)[C@@H]2c2cccnc2)C1` [Example 75, (2S,3S)-N-(19-(((1R,2S,5R)-5-(Isopropyl(methyl)amino)-2-((S)-2-oxo-3-((6-(trifluoromethyl)quinazolin-4-yl)amino)pyrrolidin-1-yl)cyclohexyl)amino)-3,9,19-trioxo-7,13, 16-trioxa-4, 10-diazanonadecyl)-1-methyl-5-oxo-2-(pyridin-3-yl)pyrrolidine-3-carboxamide], in assay [1], the EC50 is 1 nM. Moreover, in assay [2], the “pKd of Antibody for ARM Compound of Formula (I)” value (shortened to “pKd of Antibody”) turned out to be 9.103.
Turning to `CC(C)N(C)[C@@H]1CC[C@H](N2CC[C@H](Nc3ncnc4ccc(C(F)(F)F)cc34)C2=O)[C@H](NC(=O)[C@H]2CC[C@@H](NC(=O)CCO[C@H]3CC[C@H](OCCNC(=O)[C@H]4CC(=O)N(C)[C@@H]4c4cccnc4)CC3)CC2)C1` [Example 112, (2S,3S)-N-(2-(((1S,4S)-4-(3-(((1S,4S)-4-(((1R,2S,5R)-5-(Isopropyl(methyl)amino)-2-((S)-2-oxo-3-((6-(trifluoromethyl)quinazolin-4-yl)amino)pyrrolidin-1-yl)cyclohexyl)carbamoyl)cyclohexyl)amino)-3-oxopropoxy)cyclohexyl)oxy)ethyl)-1-methyl-5-oxo-2-(pyridin-3-yl)pyrrolidine-3-carboxamide], the EC50 in assay [1] is 0.794 nM. For the same compound, the “pKd of Antibody” value in assay [2] is listed as 9.343.
As to `CC(C)N(C)[C@@H]1CC[C@H](N2CC[C@H](Nc3ncnc4ccc(C(F)(F)F)cc34)C2=O)[C@H](NC(=O)COCCNC(=O)CCNC(=O)COCCOCCNC(=O)[C@H]2CC(=O)N(C)[C@@H]2c2cccnc2)C1` [Example 79, (2S,3S)-N-(18-(((1R,2S,5R)-5-(Isopropyl(methyl)amino)-2-((S)-2-oxo-3-((6-(trifluoromethyl)quinazolin-4-yl)amino)pyrrolidin-1-yl)cyclohexyl)amino)-8,12,18-trioxo-3,6,16-trioxa-9,13-diazaoctadecyl)-1-methyl-5-oxo-2-(pyridin-3-yl)pyrrolidine-3-carboxamide], the EC50 in assay [1] is 3.16 nM. Moreover, the “pKd of Antibody” value in assay [2] is on record as 9.126.
On to `CC(C)N(C)[C@@H]1CC[C@H](N2CC[C@H](Nc3ncnc4ccc(C(F)(F)F)cc34)C2=O)[C@H](NC(=O)CCOCCNC(=O)[C@H]2CC[C@@H](NC(=O)CCOCCNC(=O)[C@H]3CC(=O)N(C)[C@@H]3c3cccnc3)CC2)C1` [Example 110, (2S,3S)-N-(2-(3-(((1S,4R)-4-((2-(3-(((1R,2S,5R)-5-(Isopropyl(methyl)amino)-2-((S)-2-oxo-3-((6-(trifluoromethyl)quinazolin-4-yl)amino)pyrrolidin-1-yl)cyclohexyl)amino)-3-oxopropoxy)ethyl)carbamoyl)cyclohexyl)amino)-3-oxopropoxy)ethyl)-1-methyl-5-oxo-2-(pyridin-3-yl)pyrrolidine-3-carboxamide], for which the EC50 in assay [1] is 0.0501 nM. The “pKd of Antibody” value in assay [2] was 8.9085.
On to `CC(C)N(C)[C@@H]1CC[C@H](N2CC[C@H](Nc3ncnc4ccc(C(F)(F)F)cc34)C2=O)[C@H](NC(=O)COCCNC(=O)CCOCCNC(=O)COCCNC(=O)[C@H]2CC(=O)N(C)[C@@H]2c2cccnc2)C1` [Example 104, (2S,3S)-N-(18-(((1R,2S,5R)-5-(Isopropyl(methyl)amino)-2-((S)-2-oxo-3-((6-(trifluoromethyl)quinazolin-4-yl)amino)pyrrolidin-1-yl)cyclohexyl)amino)-5,12,18-trioxo-3,9,16-trioxa-6,13-diazaoctadecyl)-1-methyl-5-oxo-2-(pyridin-3-yl)pyrrolidine-3-carboxamide], for which the EC50 in assay [1] is 0.631 nM. In assay [2], the “pKd of Antibody” value came to 9.051.
As to `CC(C)N(C)[C@@H]1CC[C@H](N2CC[C@H](Nc3ncnc4ccc(C(F)(F)F)cc34)C2=O)[C@H](NC(=O)COCCNC(=O)COCCNC(=O)CCOCCNC(=O)[C@H]2CC(=O)N(C)[C@@H]2c2cccnc2)C1` [Example 151, (2S,3S)-N-(1-(((1R,2S,5R)-5-(Isopropyl(methyl)amino)-2-((S)-2-oxo-3-((6-(trifluoromethyl)quinazolin-4-yl)amino)pyrrolidin-1-yl)cyclohexyl)amino)-1,7,13-trioxo-3,9,16-trioxa-6,12-diazaoctadecan-18-yl)-1-methyl-5-oxo-2-(pyridin-3-yl)pyrrolidine-3-carboxamide], the EC50 in assay [1] is 2 nM. In addition, in assay [2], the “pKd of Antibody” value was 9.0755.
Turning to `CC(C)N(C)[C@@H]1CC[C@H](N2CC[C@H](Nc3ncnc4ccc(C(F)(F)F)cc34)C2=O)[C@H](NC(=O)CCOCCOCCOCCNc2c(NCCNC(=O)[C@H]3CC(=O)N(C)[C@@H]3c3cccnc3)c(=O)c2=O)C1` [Example 168, (2S,3S)-N-(2-((2-((2-(2-(2-(3-(((1R,2S,5R)-5-(Isopropyl(methyl)amino)-2-((S)-2-oxo-3-((6-(trifluoromethyl)quinazolin-4-yl)amino)pyrrolidin-1-yl)cyclohexyl)amino)-3-oxopropoxy)ethoxy)ethoxy)ethyl)amino)-3,4-dioxocyclobut-1-en-1-yl)amino)ethyl)-1-methyl-5-oxo-2-(pyridin-3-yl)pyrrolidine-3-carboxamide], the EC50 in assay [1] was 1 nM. Moreover, in assay [2], the “pKd of Antibody” value turned out to be 9.06.
Consider `CN1C(=O)C[C@H](C(=O)NCCOCC(=O)NCCOCC(=O)NCCOCCC(=O)N[C@@H]2C[C@H](NC(C)(C)C)CC[C@@H]2N2CC[C@H](Nc3ncnc4ccc(C(F)(F)F)cc34)C2=O)[C@H]1c1cccnc1` [Example 103, (2S,3S)-N-(18-(((1R,2S,5R)-5-(tert-Butylamino)-2-((S)-2-oxo-3-((6-(trifluoromethyl)quinazolin-4-yl)amino)pyrrolidin-1-yl)cyclohexyl)amino)-5,11,18-trioxo-3,9,15-trioxa-6, 12-diazaoctadecyl)-1-methyl-5-oxo-2-(pyridin-3-yl)pyrrolidine-3-carboxamide], for which the EC50 in assay [1] is 100000 nM. Also, the “pKd of Antibody” value in assay [2] is 9.0985.
Regarding `CC(C)N(C)[C@@H]1CC[C@H](N2CC[C@H](Nc3ncnc4ccc(C(F)(F)F)cc34)C2=O)[C@H](NC(=O)CCCC(=O)N[C@H]2CC[C@H](CNC(=O)CCOCCNC(=O)[C@H]3CC(=O)N(C)[C@@H]3c3cccnc3)CC2)C1` [Example 180, N^1-((1R,2S,5R)-5-(isopropyl(methyl)amino)-2-((S)-2-oxo-3-((6-(trifluoromethyl)quinazolin-4-yl)amino)pyrrolidin-1-yl)cyclohexyl)-N^5-((1S,4R)-4-((3-(2-((2S,3S)-1-methyl-5-oxo-2-(pyridin-3-yl)pyrrolidine-3-carboxamido)ethoxy)propanamido)methyl)cyclohexyl)glutaramide], the EC50 in assay [1] is 1.26 nM. For the same compound, the “pKd of Antibody” value in assay [2] came out at 9.249.
For `CC(C)N(C)[C@@H]1CC[C@H](N2CC[C@H](Nc3ncnc4ccc(C(F)(F)F)cc34)C2=O)[C@H](NC(=O)COCCNC(=O)[C@H]2CC[C@@H](NC(=O)CCOCCNC(=O)[C@H]3CC(=O)N(C)[C@@H]3c3cccnc3)CC2)C1` [Example 109, (2S,3S)-N-(2-(3-(((1S,4R)-4-((2-(2-(((1R,2S,5R)-5-(Isopropyl(methyl)amino)-2-((S)-2-oxo-3-((6-(trifluoromethyl)quinazolin-4-yl)amino)pyrrolidin-1-yl)cyclohexyl)amino)-2-oxoethoxy)ethyl)carbamoyl)cyclohexyl)amino)-3-oxopropoxy)ethyl)-1-methyl-5-oxo-2-(pyridin-3-yl)pyrrolidine-3-carboxamide], the EC50 in assay [1] is 0.631 nM. For the same compound, the “pKd of Antibody” value in assay [2] came out at 8.951.
The like results for `CC(C)N(C)[C@@H]1CC[C@H](N2CC[C@H](Nc3ncnc4ccc(C(F)(F)F)cc34)C2=O)[C@H](NC(=O)COCCOCCNC(=O)COCCNC(=O)CCNC(=O)[C@H]2CC(=O)N(C)[C@@H]2c2cccnc2)C1` [Example 74, (2S,3S)-N-(1-(((1R,2S,5R)-5-(isopropyl(methyl)amino)-2-((S)-2-oxo-3-((6-(trifluoromethyl)quinazolin-4-yl)amino)pyrrolidin-1-yl)cyclohexyl)amino)-1,10,16-trioxo-3,6,12-trioxa-9,15-diazaoctadecan-18-yl)-1-methyl-5-oxo-2-(pyridin-3-yl)pyrrolidine-3-carboxamide] were, in that order, 100000 nM and 9.091.
